The record followed here is patent US20240216320A1, “COMPOSITIONS AND METHODS FOR TREATING SICKLE CELL DISEASE” (Augusta University Research Institute, Inc., priority 2019, published 2024).

Data set [1] concerns intracellular heme in K562 cells. The data set is described as follows: QuantiChrom heme quantitation assay in K562 cells. Type of data set: cell-based. How it is done: The total cellular heme content was determined using the QuantiChrom™ Heme Assay Kit (DIHM-250, BioAssay Systems, Hayward, CA) per the manufacturer's instructions. Briefly, 25 μL of cellular lysate was mixed with 100 μL of detection reagent. The mixture was incubated at room temperature for 5 min followed by measuring the absorbance at 400 nm on a microplate reader. The total heme concentration was calculated based on a formula provided by the manufacturer: Heme concentration=(OD^sample−OD^blank)/(OD^calibrator−OD^blank)×125× dilution factor. This value was normalized by total protein in each sample.

The next data set relates to HbF in K562 cells. The data set is described as follows: HbF positive cells (F-cells) by flow cytometry in K562 cells. The format is cell-based. Conditions: K562 cells, 0.125 and 0.25 mM, 48 h, maximum; 10% in EtOH treated controls. Here is the method: (§1) K562 cells were cultured in Iscove's Modified Dulbecco medium (IMDM) with 10% fetal bovine serum, penicillin (100 U/mL) and streptomycin (0.1 mg/mL). Drug inductions for K562 cells were conducted for 48 h and cell viability evaluated with 0.4% Trypan blue exclusion. Cell counts were performed a dual chamber apparatus and the percentage viability obtained using an Automated Cell Counter (Bio-Rad).
To measure percent HbF positive cells (F-cells), K562 cells and erythroid precursors were fixed with 1% formaldehyde, permeabilized with ice-cold acetone:methanol (4:1 ratio) and stained with fluorescein isothiocyanate (FITC) anti-HbF antibody (ab19365, Abcam Cambridge MA) and isotype control IgG antibody (MBS524511, MyBioSource, San Diego CA) was used to detect non-specific staining. The F-cells levels and HbF protein levels measured by mean fluorescence intensity (MFI) were analyzed on an LSR-II flow cytometer (BD Biosciences, San Jose CA) and FlowJo analysis to generate quantitative data.
Background: A flow cytometer gives signals particle by particle.

Another data set has as its system γ-globin promoter. The experiment in a line: ChIP assay, histone acetylation in γ-globin promoter. The format is cell-based, human. The settings on record: for enrichment for AcH3 in the γ-globin promoter: compared to IgG control, dose-dependent. How it is done:
ChIP assay was performed as previously published by our group with immunoprecipitations for AcH3, AcH4 and TBP antibodies (Santa Cruz Biotechnology) and rabbit IgG as a control. Primers used to quantify in vivo chromatin modifications are as follows: locus control region DNase I hypersensitive site 2 (LCR-HS2) forward […] (SEQ ID NO:1) and reverse […] (SEQ ID NO:2), γ-globin promoter (forward CTGAAACGGTCCCTGGCTA (SEQ ID NO:3), reverse […] (SEQ ID NO:4)), and β-globin promoter (forward […] (SEQ ID NO:5), reverse […] (SEQ ID NO:6)).

For data set [2], the system named is HbS in sickle erythroid precursors. The experiment in a line: Western blot of HbS in sickle erythroid precursors. The format is cell-based, human. Conditions: 0.25 mM. Here is the method: (§2) For primary cultures, erythroid precursors were generated from peripheral blood mononuclear cells isolated from discard blood of sickle patients under an IRB exempt protocol. These cells were cultured in a two-phase liquid culture system previously published (Li, B., et al., Haematologica 103:e384-e387 (2018)).
(§3) During phase 1, cells were grown in Iscove's Dulecco Media with 15% fetal bovine serum, 15% human AB serum, 10 ng/mL interleukin-3, 50 ng/mL stem cell factor and 2 IU/mL of erythropoietin (Peprotech, Rocky Hill NJ). Phase 2 of culture initiated on day 7 with a similar medium without stem cell factor and interleukin-3. On day 8, erythroid precursors were treated with AN-233 (0.125 mM and 0.25 mM), ethanol (EtOH; […] and 0.016%) and the positive control HU (100 μM) for 48 h and harvested for the various analyses.
(§4) Western blot analysis was performed using whole cell lysates generated with RIPA buffer (ThermoScientific, Rockford, IL) supplemented with proteinase and phosphatase inhibitor cocktails. For histone acetylation studies, nuclear lysates were prepared by suspending cells in buffer containing 20 mM HEPES, pH 7.9, 50 mM KCl, 420 mM NaCl, 0.1 mM EDTA, 1 mM DTT, 10% glycerol and protease inhibitor mixture for 30 min, followed by centrifugation. […]
In general terms: Immunoblotting shows a protein as a band on a membrane.

For data set [3], the system named is γ-globin mRNA in K562 cells. The data set is described as follows: γ-globin transcription by RT-qPCR in K562 cells. The format is cell-based. The settings on record: 48 h. Here is the method:
Initial studies were conducted in K562 cells to determine the ability of AN-233 to induce γ-globin transcription and HbF expression. K562 cells display characteristics of erythroid cells including expression of the ε, γ and α globin genes and these cells are useful for initial drug screening and discovery of potential HbF inducers.
K562 cells were treated with AN-233 for 48 h and globin gene transcription was analyzed by RT-qPCR. […]
as §1
Total RNA was extracted from cells using Trizol (Ambion, Carlsbad CA) and analyzed by RT-qPCR as previously published by our group. Gene-specific primers were used to quantify mRNA levels for γ-globin, β-globin and internal control glyceraldehyde-3-phosphate de-hydrogenase (GAPDH). All mRNA levels were normalized to GAPDH before analysis.
On the technique in general: Quantitative PCR measures a nucleic acid by following its amplification.

The test system of data set [4] is HbF in sickle erythroid precursors. The data set is described as follows: Western blot of HbF in sickle erythroid precursors. The format is cell-based, human. The settings on record: sickle erythroid precursors, 0.25 mM. How it is done:
as §2, §3, §4

A further data set relates to β-YAC transgenic mice. The experiment in a line: Toxicity, body weight, blood counts and reticulocytes in β-YAC transgenic mice. How it is done: The β-YAC is a transgenic mouse model containing the full-length 81 kb human β-globin gene locus including the LCR and surrounding region. The five functional human globin genes 5′-ε-Gγ-Aγ-[…]-β-3′ are present and undergo normal developmental regulation with the γ-globin gene silenced shortly after birth. β-YAC mice (5-6 months old) were administered AN-233 suspended in water (200 or 300 mg/kg) 5 days/week for 4 weeks by intraperitoneal injection; five mice per group with 3 males and 2 females were treated. Hydroxyurea (100 mg/kg) was included as a positive control. Blood was collected by tail bleed at week 0, 2 and 4 and analyzed for automated complete blood counts with differential using a Micros 60 machine (HORIBA Medical/ABX Diagnostics). The level of F-cells and MFI were performed by flow cytometry. For reticulocyte counts, whole blood was stained with acridine orange and flow cytometry performed on an LSR-II flow cytometer (BD Biosciences).

On to `CCCC(=O)OC(C)OC(=O)CCC(=O)CN` (stereo not drawn) [AN-233, 1-(butyryloxy)ethyl-5-amino-4-oxopentanoate], for which the “increase in intracellular heme” value was 1.5 fold in data set [1] (0.25 mM) and 1.8 fold in data set [1] (0.5 mM). In the data set on HbF in K562 cells, this compound had a F-cells of 19%. The “AcH4 levels in the γ-globin promoter” value with γ-globin promoter (ChIP) is given as “increased”. In addition, the “enrichment for AcH3 in the γ-globin promoter” value amounted to 12 fold in the data set on γ-globin promoter (first (lower) value) and 30 fold in the data set with γ-globin promoter (second (higher) value). In addition, the “HbS expression by Western blot” value in data set [2] was “without changing HbS expression”. For the same compound, the figures for the “increase in γ-globin mRNA levels” value in data set [3] (0.125 mM) and in data set [3] (0.25 mM) were 1.8 fold and 2.0 fold, respectively. In addition, in data set [4], the “increase in HbF protein by Western blot” value was 2.6 fold. Also, in the data set with β-YAC transgenic mice (mouse, in vivo), the “anti-proliferative effects on erythropoiesis” value is given as “without observing anti-proliferative effects”. Besides, in the data set on β-YAC transgenic mice (β-YAC mice, 300 mg/kg ip, week 4, p=0.01), the increase in reticulocytes is 1.8 fold.
